Among the data in patent US7524869B2, “Taxanes having a C10 ester substituent” (Florida State University Research Foundation, Inc., priority 2000, dated 2009) are IC50 values, retold here.

The assay relates to HCT116. Put plainly: In vitro cytotoxicity measured by the cell colony formation assay. It is filed as cell-based. The conditions noted are these: HCT116 cells, 72 h drug incubation, colonies counted after 7 days; ID50 = drug concentration producing 50% inhibition of colony formation; read-out: IN VITRO ID 50 (nm) HCT116.

Consider `CC(=O)OC12COC1CC(O)C1(C)C(=O)C(OC(=O)c3cccs3)C3=C(C)C(OC(=O)C(O)C(NC(=O)OC(C)(C)C)c4ccccc4)CC(O)(C(OC(=O)c4ccccc4)C21)C3(C)C` (stereo not shown) [Compound 1988], for which the IC50 is < 10 nM.
The value for `CCC(=O)O[C@H]1C(=O)[C@@]2(C)C([C@H](OC(=O)c3ccccc3)[C@]3(O)C[C@H](OC(=O)[C@H](O)[C@@H](NC(=O)OC(C)C)c4ccco4)C(C)=C1C3(C)C)[C@]1(OC(C)=O)CO[C@@H]1C[C@@H]2O` (stereo partly shown) [Compound 3522] was < 1 nM; that for `CCCC(=O)O[C@H]1C(=O)[C@@]2(C)C([C@H](OC(=O)c3ccccc3)[C@]3(O)C[C@H](OC(=O)[C@H](O)[C@@H](NC(=O)OC(C)(C)C)c4cccnc4)C(C)=C1C3(C)C)[C@]1(OC(C)=O)CO[C@@H]1C[C@@H]2O` (stereo partly shown) [Compound 0966] was < 10 nM; that for `C/C=C/C(=O)N[C@@H](c1cccs1)[C@@H](O)C(=O)O[C@H]1C[C@@]2(O)[C@@H](OC(=O)c3ccccc3)C3[C@](C)(C(=O)[C@H](OC(=O)C4CC4)C(=C1C)C2(C)C)[C@@H](O)C[C@H]1OC[C@@]31OC(C)=O` (stereo partly shown) [Compound 3513] was < 1 nM.
`CCCC(=O)O[C@H]1C(=O)[C@@]2(C)C([C@H](OC(=O)c3ccccc3)[C@]3(O)C[C@H](OC(=O)[C@H](O)[C@@H](NC(=O)c4ccccc4)c4cccs4)C(C)=C1C3(C)C)[C@]1(OC(C)=O)CO[C@@H]1C[C@@H]2O` (stereo partly shown) [Compound 3258]: the IC50 was < 1 nM.
Consider `CC(=O)O[C@@]12CO[C@@H]1C[C@H](O)[C@@]1(C)C(=O)[C@H](OC(=O)C3CC3)C3=C(C)[C@@H](OC(=O)[C@H](O)[C@@H](NC(=O)OC(C)(C)C)c4ccncc4)C[C@@](O)([C@@H](OC(=O)c4ccccc4)C12)C3(C)C` (stereo partly shown) [Compound 2813], for which the IC50 is < 1 nM.
With `CCCC(=O)O[C@H]1C(=O)[C@@]2(C)C([C@H](OC(=O)c3ccccc3)[C@]3(O)C[C@H](OC(=O)[C@H](O)[C@@H](NC(=O)OC(C)C)c4cccs4)C(C)=C1C3(C)C)[C@]1(OC(C)=O)CO[C@@H]1C[C@@H]2O` (stereo partly shown) [Compound 3909], the IC50 is < 1 nM.
Turning to `CC(=O)OC12COC1CC(O)C1(C)C(=O)C(OC(=O)c3cccs3)C3=C(C)C(OC(=O)C(O)C(NC(=O)OC(C)(C)C)c4ccco4)CC(O)(C(OC(=O)c4ccccc4)C21)C3(C)C` (stereo not shown) [Compound 1892], the IC50 was < 1 nM.
Consider `CCC(=O)O[C@H]1C(=O)[C@@]2(C)C([C@H](OC(=O)c3ccccc3)[C@]3(O)C[C@H](OC(=O)[C@H](O)[C@@H](NC(=O)c4ccco4)c4cccs4)C(C)=C1C3(C)C)[C@]1(OC(C)=O)CO[C@@H]1C[C@@H]2O` (stereo partly shown) [Compound 3053], for which the IC50 was < 1 nM.
The value for `CC(=O)O[C@@]12CO[C@@H]1C[C@H](O)[C@@]1(C)C(=O)[C@H](OC(=O)C(C)C)C3=C(C)[C@@H](OC(=O)[C@H](O)[C@@H](NC(=O)OC(C)(C)C)c4ccco4)C[C@@](O)([C@@H](OC(=O)c4ccccc4)C12)C3(C)C` (stereo partly shown) [Compound 2269] was < 1 nM.
For `CC(=O)O[C@@]12CO[C@@H]1C[C@H](O)[C@@]1(C)C(=O)[C@H](OC(=O)C3CC3)C3=C(C)[C@@H](OC(=O)[C@H](O)[C@@H](NC(=O)c4ccccc4)c4ccsc4)C[C@@](O)([C@@H](OC(=O)c4ccccc4)C12)C3(C)C` (stereo partly shown) [Compound 2838], the IC50 is < 1 nM.
Consider `CC(=O)OC12COC1CC(O)C1(C)C(=O)C(OC(=O)c3cccs3)C3=C(C)C(OC(=O)C(O)C(NC(=O)OC(C)(C)C)c4cccnc4)CC(O)(C(OC(=O)c4ccccc4)C21)C3(C)C` (stereo not shown) [Compound 1948], for which the IC50 was < 10 nM.
As for `C/C=C/C(=O)N[C@@H](c1ccsc1)[C@@H](O)C(=O)O[C@H]1C[C@@]2(O)[C@@H](OC(=O)c3ccccc3)C3[C@](C)(C(=O)[C@H](OC(=O)C4CC4)C(=C1C)C2(C)C)[C@@H](O)C[C@H]1OC[C@@]31OC(C)=O` (stereo partly shown) [Compound 5040], the IC50 is < 1 nM.
Turning to `CCCC(=O)O[C@H]1C(=O)[C@@]2(C)C([C@H](OC(=O)c3ccccc3)[C@]3(O)C[C@H](OC(=O)[C@H](O)[C@@H](NC(=O)C=C(C)C)c4cccs4)C(C)=C1C3(C)C)[C@]1(OC(C)=O)CO[C@@H]1C[C@@H]2O` (stereo partly shown) [Compound 4344], the IC50 is < 1 nM.
Take `CC(=O)O[C@@]12CO[C@@H]1C[C@H](O)[C@@]1(C)C(=O)[C@H](OC(=O)C3CC3)C3=C(C)[C@@H](OC(=O)[C@H](O)[C@@H](NC(=O)OC(C)(C)C)c4ccsc4)C[C@@](O)([C@@H](OC(=O)c4ccccc4)C12)C3(C)C` (stereo partly shown) [Compound 2794]: the IC50 is < 1 nM.
The value for `CCC(=O)O[C@H]1C(=O)[C@@]2(C)C([C@H](OC(=O)c3ccccc3)[C@]3(O)C[C@H](OC(=O)[C@H](O)[C@@H](NC(=O)c4ccccc4)c4ccccn4)C(C)=C1C3(C)C)[C@]1(OC(C)=O)CO[C@@H]1C[C@@H]2O` (stereo partly shown) [Compound 0634] was < 10 nM; that for `CCCC(=O)O[C@H]1C(=O)[C@@]2(C)C([C@H](OC(=O)c3ccccc3)[C@]3(O)C[C@H](OC(=O)[C@H](O)[C@@H](NC(=O)c4ccccc4)C4CC4)C(C)=C1C3(C)C)[C@]1(OC(C)=O)CO[C@@H]1C[C@@H]2O` (stereo partly shown) [Compound 3482] was < 1 nM; that for `CC(=O)O[C@@]12CO[C@@H]1C[C@H](O)[C@@]1(C)C(=O)[C@H](OC(=O)C=C(C)C)C3=C(C)[C@@H](OC(=O)[C@H](O)[C@H](C=C(C)C)NC(=O)OC(C)(C)C)C[C@@](O)([C@@H](OC(=O)c4ccccc4)C12)C3(C)C` (stereo partly shown) [Compound 2455] was < 10 nM.
Turning to `CCC(=O)O[C@H]1C(=O)[C@@]2(C)C([C@H](OC(=O)c3ccccc3)[C@]3(O)C[C@H](OC(=O)[C@H](O)[C@@H](NC(=O)c4ccccc4)c4ccsc4)C(C)=C1C3(C)C)[C@]1(OC(C)=O)CO[C@@H]1C[C@@H]2O` (stereo partly shown) [Compound 0691], the IC50 is < 1 nM.
Turning to `CCCC(=O)O[C@H]1C(=O)[C@@]2(C)C([C@H](OC(=O)c3ccccc3)[C@]3(O)C[C@H](OC(=O)[C@H](O)[C@@H](NC(=O)OC(C)(C)C)c4cccs4)C(C)=C1C3(C)C)[C@]1(OC(C)=O)CO[C@@H]1C[C@@H]2O` (stereo partly shown) [Compound 1003], the IC50 was < 1 nM.
For the compound `C/C=C/C(=O)N[C@@H](c1ccoc1)[C@@H](O)C(=O)O[C@H]1C[C@@]2(O)[C@@H](OC(=O)c3ccccc3)C3[C@](C)(C(=O)[C@H](OC(=O)CCC)C(=C1C)C2(C)C)[C@@H](O)C[C@H]1OC[C@@]31OC(C)=O` (stereo partly shown) [Compound 4919], the IC50 was < 1 nM.
For `CCCC(=O)O[C@H]1C(=O)[C@@]2(C)C([C@H](OC(=O)c3ccccc3)[C@]3(O)C[C@H](OC(=O)[C@H](O)[C@H](C=C(C)C)NC(=O)OC(C)(C)C)C(C)=C1C3(C)C)[C@]1(OC(C)=O)CO[C@@H]1C[C@@H]2O` (stereo partly shown) [Compound 0947], the IC50 is < 1 nM.
The value for `C/C=C/C(=O)N[C@@H](c1ccco1)[C@@H](O)C(=O)O[C@H]1C[C@@]2(O)[C@@H](OC(=O)c3ccccc3)C3[C@](C)(C(=O)[C@H](OC(=O)CC)C(=C1C)C2(C)C)[C@@H](O)C[C@H]1OC[C@@]31OC(C)=O` (stereo partly shown) [Compound 3982] was < 1 nM; that for `CCC(=O)O[C@H]1C(=O)[C@@]2(C)C([C@H](OC(=O)c3ccccc3)[C@]3(O)C[C@H](OC(=O)[C@H](O)[C@@H](NC(=O)OC(C)(C)C)C4CCC4)C(C)=C1C3(C)C)[C@]1(OC(C)=O)CO[C@@H]1C[C@@H]2O` (stereo partly shown) [Compound 0596] was < 10 nM; that for `C/C=C/C(=O)O[C@H]1C(=O)[C@@]2(C)C([C@H](OC(=O)c3ccccc3)[C@]3(O)C[C@H](OC(=O)[C@H](O)[C@@H](NC(=O)OC(C)(C)C)C(C)C)C(C)=C1C3(C)C)[C@]1(OC(C)=O)CO[C@@H]1C[C@@H]2O` (stereo partly shown) [Compound 2413] was < 10 nM.
As to `CCCC(=O)O[C@H]1C(=O)[C@@]2(C)C([C@H](OC(=O)c3ccccc3)[C@]3(O)C[C@H](OC(=O)[C@H](O)[C@@H](NC(=O)OC(C)(C)C)c4ccco4)C(C)=C1C3(C)C)[C@]1(OC(C)=O)CO[C@@H]1C[C@@H]2O` (stereo partly shown) [Compound 0983], the IC50 was < 1 nM.
Turning to `CC(=O)OC12COC1CC(O)C1(C)C(=O)C(OC(=O)c3ccco3)C3=C(C)C(OC(=O)C(O)C(NC(=O)OC(C)(C)C)C4CCC4)CC(O)(C(OC(=O)c4ccccc4)C21)C3(C)C` (stereo not shown) [Compound 2199], the IC50 is < 10 nM.
On to `CCCC(=O)OC1C(=O)C2(C)C(O)CC3OCC3(OC(C)=O)C2C(OC(=O)c2ccccc2)C2(O)CC(OC(=O)C(O)C(NC(=O)OC(C)(C)C)c3ccccc3)C(C)=C1C2(C)C` (stereo not shown) [Compound 1060], for which the IC50 was < 1 nM.
Regarding `CCCC(=O)O[C@H]1C(=O)[C@@]2(C)C([C@H](OC(=O)c3ccccc3)[C@]3(O)C[C@H](OC(=O)[C@H](O)[C@@H](NC(=O)c4cccs4)c4cccs4)C(C)=C1C3(C)C)[C@]1(OC(C)=O)CO[C@@H]1C[C@@H]2O` (stereo partly shown) [Compound 3408], the IC50 is < 1 nM.
Consider `CC(=O)O[C@@]12CO[C@@H]1C[C@H](O)[C@@]1(C)C(=O)[C@H](OC(=O)C3CC3)C3=C(C)[C@@H](OC(=O)[C@H](O)[C@@H](NC(=O)OCC(C)C)c4ccoc4)C[C@@](O)([C@@H](OC(=O)c4ccccc4)C12)C3(C)C` (stereo partly shown) [Compound 4665], for which the IC50 is < 10 nM.
Take `CCC(=O)O[C@H]1C(=O)[C@@]2(C)C([C@H](OC(=O)c3ccccc3)[C@]3(O)C[C@H](OC(=O)[C@H](O)[C@@H](NC(=O)OC(C)(C)CC)c4ccco4)C(C)=C1C3(C)C)[C@]1(OC(C)=O)CO[C@@H]1C[C@@H]2O` (stereo partly shown) [Compound 6522]: the IC50 was < 1 nM.
The result for `CCC(=O)O[C@H]1C(=O)[C@@]2(C)C([C@H](OC(=O)c3ccccc3)[C@]3(O)C[C@H](OC(=O)[C@H](O)[C@@H](NC(=O)C=C(C)C)c4cccs4)C(C)=C1C3(C)C)[C@]1(OC(C)=O)CO[C@@H]1C[C@@H]2O` (stereo partly shown) [Compound 4335] reads < 1 nM; that for `CC(=O)O[C@@]12CO[C@@H]1C[C@H](O)[C@@]1(C)C(=O)[C@H](OC(=O)C(C)C)C3=C(C)[C@@H](OC(=O)[C@H](O)[C@@H](NC(=O)OC(C)(C)C)c4ccc([N+](=O)[O-])cc4)C[C@@](O)([C@@H](OC(=O)c4ccccc4)C12)C3(C)C` (stereo partly shown) [Compound 2320], < 1 nM; that for `CCCC(=O)O[C@H]1C(=O)[C@@]2(C)C([C@H](OC(=O)c3ccccc3)[C@]3(O)C[C@H](OC(=O)[C@H](O)[C@@H](NC(=O)OCC(C)C)c4cccs4)C(C)=C1C3(C)C)[C@]1(OC(C)=O)CO[C@@H]1C[C@@H]2O` (stereo partly shown) [Compound 3265], < 10 nM.
